For orientation: melting point means the temperature, or range, at which the solid turns liquid.

Consider 122 molecules from a melting point compilation (Tetko et al.).

Structures are written as SMILES.

The molecule `CCOCCN1C(=O)C(=O)c2ccccc21` registered a melting point of 65 to 67 °C.

Molecule `Sc1nnc(-c2ccncc2)n1-c1ccccc1` came in with a melting point of 290 to 292 °C.

With `COc1ccccc1NS(=O)(=O)c1cc(C(=O)O)ccc1Cl`, the melting point is 176 to 178 °C.

In the case of `O=C(O)c1cc(F)cc2cccnc12`, the melting point lay within 159 to 161 °C.

The molecule `O=C(O)c1sc2cc(Cl)cc(Cl)c2c1Cl` gave a melting point of 248 to 250 °C.

Consider `Cc1nn(-c2ccccc2)c(C)c1NC(=O)CCCl`, for which the melting point fell in the range of 119 to 121 °C.

Consider `Nc1c(-c2ccccc2)nn(-c2ccccc2)c1N`, for which the melting point was in the range of 89 to 91 °C.

`COC(=O)c1ccc(C(F)(F)F)cc1N` gave a melting point of 58 to 60 °C.

`COc1ccc(CC(N)=NO)cc1OC` registered a melting point of 135 to 137 °C.

On to `COc1ccc(CC2CCNCC2)cc1`, for which the melting point lay in the range of 55 to 57 °C.

`CC(C)(C)CC(=O)NCC(=O)O`: the melting point lay within 106 to 108 °C.

`C/C(CC(=O)c1ccccc1)=N\c1ccccc1` yielded a melting point of 110 to 112 °C.

With `CC(C)(C)OC(=O)NC(C(=O)O)C1CCCCC1` (configuration not stated), the melting point fell in the range of 163 to 165 °C.

Turning to `NCc1cc2sccc2s1`, the melting point is 58 to 60 °C.

`Cc1ccc(S(=O)(=O)NCCCC(=O)O)cc1`: the melting point lay in the range of 138 to 140 °C.

`COCCOc1ccc(C(=O)O)cn1` registered a melting point of 134 to 136 °C.

Turning to `O=C(O)c1cc2ccc(SC(F)(F)F)cc2[nH]1`, the melting point lay within 185 to 187 °C.

In the case of `COCc1ccc(C(=O)O)o1`, the melting point was in the range of 63 to 65 °C.

On to `N#Cc1cnoc1N`, for which the melting point was 143 to 145 °C.

The molecule `O=C(O)c1cccc(Nc2ccccc2)c1` returned a melting point of 129 to 131 °C.

For the molecule `CCc1ccsc1C(N)=O`, the melting point lay in the range of 146 to 148 °C.

As for `C/C(N)=C\C#N`, the melting point was in the range of 4 to 6 °C.

Molecule `CC(=O)Nc1cc(C)c(C)cc1[N+](=O)[O-]` yielded a melting point of 189 to 191 °C.

Consider `N#CC1COCCN1` (configuration not stated), for which the melting point lay in the range of 76 to 78 °C.

As to `CC(CS(C)(=O)=O)C(=O)O` (configuration not stated), the melting point was in the range of 125 to 127 °C.

In the case of `CCOC(=O)COc1ccc(C(N)=S)cc1`, the melting point was in the range of 126 to 128 °C.

`O=C(O)c1cnn(-c2ccccc2F)c1` had a melting point of 160 to 162 °C.

The molecule `NC(=O)c1ccc(CSc2ncccc2C(=O)O)cc1` had a melting point of 291 to 293 °C.

The molecule `O=C(O)CNS(=O)(=O)c1cc(C(F)(F)F)ccc1Cl` showed a melting point of 157 to 159 °C.

As for `Cc1nc(N)c(I)cc1Br`, the melting point was in the range of 135 to 137 °C.

`Nc1cnc(-c2cccc(F)c2)nc1` came in with a melting point of 112 to 114 °C.

Molecule `Cc1cc(C)c(S(=O)(=O)N2CCC(C(=O)O)CC2)c(C)c1` showed a melting point of 181 to 183 °C.

For `Cc1nn2cc(CCCO)cnc2c1C`, the melting point lay within 108 to 110 °C.

Turning to `CC1CC(O)CC(C)N1` (configuration not stated), the melting point fell in the range of 109 to 111 °C.

The molecule `Nc1nncc(-c2cccc(F)c2)n1` returned a melting point of 224 to 226 °C.

As for `CN(C)C(=O)Cn1cc(C(=O)O)nn1`, the melting point lay within 199 to 201 °C.

Molecule `COC(=O)C(F)c1nc2ccccc2c(=O)[nH]1` (configuration not stated) returned a melting point of 147 to 160 °C.

`Cc1ccncc1-n1ccnc1` showed a melting point of 64 to 66 °C.

As to `N#Cc1ccc(-c2cccs2)[nH]c1=O`, the melting point was 301 to 303 °C.

`O=C(CSc1nnnn1-c1ccccc1)c1ccc[nH]1`: the melting point was in the range of 182 to 184 °C.

`COC(=O)c1cc(C)nc(SC)n1` yielded a melting point of 116 to 118 °C.

On to `COC(=O)c1ccc2ccn(C)c2c1`, for which the melting point was in the range of 91 to 93 °C.

Molecule `Cc1cc(N2CCCS2(=O)=O)ccc1Br` had a melting point of 131 to 133 °C.

Molecule `NNc1ncnc2c1oc1ccccc12` registered a melting point of 232 to 234 °C.

As for `O=C(O)Cn1nc(-c2ccccc2)oc1=O`, the melting point is 196 to 198 °C.

As to `O=C(CBr)c1ccc2c(c1)CCO2`, the melting point was in the range of 72 to 74 °C.

`NC(=O)c1c[nH]nc1-c1ccccc1` gave a melting point of 187 to 189 °C.

Consider `Nc1ccc(CN2CCCC2=O)cc1`, for which the melting point fell in the range of 124 to 126 °C.

On to `CC(Cl)C(=O)N1CCSc2ccccc21` (configuration not stated), for which the melting point fell in the range of 81 to 83 °C.

The molecule `NC(=O)C1CCCO1` (configuration not stated) gave a melting point of 76 to 78 °C.

Turning to `CC(C)(C)N1C(=O)CNC1=O`, the melting point is 84 to 86 °C.

With `O=C1C(Br)=CC2C1C1C=CC2(Br)C12OCCO2` (configuration not stated), the melting point lay within 171 to 173 °C.

For `Nc1cc(C(F)(F)F)c[nH]c1=O`, the melting point was in the range of 96 to 98 °C.

As for `CCOc1cccc(C=CC(=O)O)c1OC1CCCC1`, the melting point lay in the range of 133 to 135 °C.

For the molecule `O=C(c1ccc(S(=O)(=O)Cl)cc1F)N1CCCC1`, the melting point lay within 79 to 81 °C.

Molecule `Cc1cc(C=CC(=O)O)cnc1N` showed a melting point of 229 to 231 °C.

Molecule `CCOC(=O)/C(C#N)=C\Nc1ccc(CC)cc1` yielded a melting point of 97 to 99 °C.

With `O=S1(=O)CCN1`, the melting point is 51 to 53 °C.

In turn, `COc1ccc(NC2=NCCS2)cc1OC` returned a melting point of 88 to 90 °C.

The molecule `NC(=O)CNS(=O)(=O)c1ccc(Br)c(C(=O)O)c1` came in with a melting point of 226 to 228 °C.

Molecule `Cc1ccc(C(=O)O)c(C)n1` showed a melting point of 168 to 170 °C.

`NC(=O)c1cc(F)ccc1Br` yielded a melting point of 152 to 154 °C.

`CC(N)C(O)c1c(F)cccc1F` (configuration not stated) yielded a melting point of 119 to 121 °C.

On to `O=C(O)c1ccc(N2CCOCC2)c([N+](=O)[O-])c1`, for which the melting point was 186 to 188 °C.

On to `Nc1ccc2oc(-c3cc(F)ccc3Br)nc2c1`, for which the melting point was in the range of 159 to 161 °C.

As to `O=C(CCN1CCOCC1)c1cc2ccccc2o1`, the melting point fell in the range of 53 to 55 °C.

The molecule `Cn1c(NCCO)nc2ccccc21` returned a melting point of 75 to 77 °C.

Consider `CC(C)N(C)S(=O)(=O)c1cccc(C(=O)O)c1`, for which the melting point fell in the range of 168 to 170 °C.

As to `O=C(O)c1cc(CCc2ccccc2)ccc1O`, the melting point was in the range of 156 to 158 °C.

In the case of `O=[N+]([O-])c1cc(Cl)cc(Br)c1O`, the melting point lay within 126 to 128 °C.

For `ClCc1ccc(-c2nc3cccc(Cl)c3s2)cc1`, the melting point was 173 to 175 °C.

As to `Cc1oncc1C(=O)Nc1cccc(C(=O)O)c1`, the melting point lay in the range of 245 to 247 °C.

In turn, `Brc1ccc(SC2CCOCC2)nc1` yielded a melting point of 60 to 62 °C.

In the case of `O=C(O)c1nccn2c(Br)cnc12`, the melting point is 158 to 160 °C.

The molecule `CNS(=O)(=O)c1c[nH]c(=O)[nH]c1=O` came in with a melting point of 279 to 281 °C.

For the molecule `Nc1ccc(Cl)c(S(=O)(=O)Nc2ccc(Cl)cc2)c1`, the melting point was 123 to 125 °C.

In turn, `Nc1ncc(Br)cc1S(N)(=O)=O` yielded a melting point of 199 to 201 °C.

`O=c1ccc2c(Cl)ccc(Cl)c2[nH]1` gave a melting point of 194 to 196 °C.

Molecule `Nc1cccc(NC(=O)c2ccoc2)c1` displayed a melting point of 120 to 122 °C.

`CNS(=O)(=O)c1ccc(Br)c(C)c1` registered a melting point of 77 to 79 °C.

In turn, `CCOC(=O)CNCC(N)=O` came in with a melting point of 70 to 72 °C.

In turn, `CC(Cl)C(=O)N1CCN(C(=O)OC(C)(C)C)CC1` (configuration not stated) showed a melting point of 115 to 117 °C.

The molecule `c1cnc(N2CCN(c3ncccn3)CC2)nc1` gave a melting point of 144 to 146 °C.

For `O=C(O)c1cccc(S(=O)(=O)N2CCCCCC2)c1`, the melting point was in the range of 173 to 175 °C.

Consider `O=C(O)CSc1ccsc1[N+](=O)[O-]`, for which the melting point fell in the range of 196 to 198 °C.

On to `O=C(O)c1cc(/C=C/c2ccc(Br)cc2)nc2ccc(Br)cc12`, for which the melting point was 309 to 311 °C.

In turn, `Cn1cc(C2NC(=O)CCC2N)cn1` (configuration not stated) had a melting point of 164 to 166 °C.

`O=C(O)Cn1c(-c2cscn2)nc2ccccc21` displayed a melting point of 256 to 258 °C.

In turn, `COCCCN1C(=O)c2ccc(C(=O)O)cc2C1=O` registered a melting point of 147 to 149 °C.

Turning to `O=C(O)c1cc(=O)n(-c2ccccc2)[nH]1`, the melting point lay within 256 to 258 °C.

`COC(=O)c1cc(N)cc(C(F)(F)F)c1`: the melting point was in the range of 78 to 80 °C.

`O=C1c2ccccc2C(=O)N1CCCS(=O)(=O)Cl` yielded a melting point of 59 to 61 °C.

In turn, `O=C(O)Cc1ccc(C(F)F)cc1` registered a melting point of 76 to 78 °C.

`S=C1Cc2ccccc2N1`: the melting point was 146 to 148 °C.

`O=C(O)c1cccc(S(=O)(=O)F)c1` showed a melting point of 152 to 154 °C.

`O=Cc1cnc2ccnn2c1` displayed a melting point of 166 to 168 °C.

On to `Nc1c(F)ccc(Cl)c1C(=O)O`, for which the melting point is 161 to 163 °C.

Consider `O=C(O)C1CC(=O)N(c2ccc(Cl)c(F)c2)C1` (configuration not stated), for which the melting point lay in the range of 149 to 151 °C.

`COc1cc(I)c(C(=O)O)cc1OC` returned a melting point of 200 to 202 °C.

Molecule `CC(C)N1C(=O)NC(=O)C1=O` came in with a melting point of 92 to 96 °C.

Turning to `N#CCOc1ccc(CCl)cc1`, the melting point fell in the range of 63 to 65 °C.

`CCOC(=O)C(O)c1nccn1Cc1ccccc1` (configuration not stated) returned a melting point of 134 to 136 °C.

Take `COc1cccc(C(=O)c2cccnc2)c1`: the melting point was 72 to 74 °C.

`O=C(O)CCC(=O)c1ccc(F)cc1F` came in with a melting point of 113 to 115 °C.

The molecule `CCn1cc(S(=O)(=O)Cl)c([N+](=O)[O-])n1` came in with a melting point of 45 to 47 °C.

In turn, `CNc1cc(C(=O)O)cc(Cl)n1` yielded a melting point of 259 to 261 °C.

Turning to `O=C(O)c1ccc2c(c1)C(=O)N(Cc1ccco1)C2=O`, the melting point fell in the range of 172 to 176 °C.

Turning to `O=C(O)Cc1csc(-c2cccc(F)c2)n1`, the melting point fell in the range of 124 to 126 °C.

`CC(C)CCNC(N)=O`: the melting point was 43 to 45 °C.

Take `CC(C)C(=O)c1ccc2[nH]c(=O)oc2c1`: the melting point is 188 to 190 °C.

Regarding `CCN(CC)S(=O)(=O)c1ccc(C=CC(=O)O)cc1`, the melting point is 184 to 186 °C.

For `CC1CCc2c(sc3nc(S)n(Cc4ccco4)c(=O)c23)C1` (configuration not stated), the melting point fell in the range of 275 to 277 °C.

The molecule `Cc1ccccc1C1CC1C(=O)O` (configuration not stated) displayed a melting point of 64 to 66 °C.

Turning to `NC(=S)Cc1cccc(Cl)c1`, the melting point was in the range of 105 to 107 °C.

`NC(=O)Cc1ccc(Cl)cc1` showed a melting point of 183 to 185 °C.

On to `O=S1(=O)CCC(S(=O)(=O)Cl)C1` (configuration not stated), for which the melting point was in the range of 114 to 116 °C.

For `Cc1ccnc(Oc2cc(N)ccc2C)c1`, the melting point was in the range of 76 to 78 °C.

Consider `CN(C)c1ccc([N+](=O)[O-])c(O)c1`, for which the melting point lay within 140 to 142 °C.

Regarding `CC(=CC(=O)O)c1ccc(F)cc1F`, the melting point fell in the range of 157 to 159 °C.

Molecule `O=C(CCl)Nc1ccc(SC(F)F)cc1` registered a melting point of 55 to 57 °C.

`CC(C)(C)OC(=O)n1ccc(N)n1` had a melting point of 129 to 131 °C.

In the case of `NC(=O)N1CC=C(c2c[nH]c3ccccc23)CC1`, the melting point lay within 199 to 201 °C.
